Source: PubChem BioAssay AID256 (DTP/NCI, 2004)
Where “and” joins values, the source holds several entries; their conditions need not be identical. Identical values can stand only once. Inconclusive results and toxic doses are left out. Rule for the calls: active = survival T/C of 150% or more; inactive = T/C below 125% in these data.

Test system: CD2F1 mice, L1210 leukemia ip, survival T/C
Assay: NCI In Vivo Anticancer Drug Screen. Data for tumor model L1210 Leukemia (intraperitoneal) in CD2F1 (CDF1) mice
Conditions: higher = longer survival
Procedure, shortened: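 Vehicle-treated tumor-bearing mice served as controls (C) for compound-treated mice (T). Reported figure is T divided by C.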

[1] = endpoint: mean survival time, dose: 25.0 mg/kg/injection, schedule: Q01DX009 (ip), vehicle: saline with Tween-80
[2] = endpoint: mean survival time, dose: 50.0 mg/kg/injection, schedule: Q01DX009 (ip), vehicle: saline with Tween-80
[3] = endpoint: mean survival time, dose: 100.0 mg/kg/injection, schedule: Q01DX009 (ip), vehicle: saline with Tween-80
[4] = endpoint: mean survival time, dose: 100.0 mg/kg/injection, schedule: Q04DX003 (ip), vehicle: saline with Tween-80
[5] = endpoint: mean survival time, dose: 200.0 mg/kg/injection, schedule: Q04DX003 (ip), vehicle: saline with Tween-80
[6] = endpoint: mean survival time, dose: 400.0 mg/kg/injection, schedule: Q04DX003 (ip), vehicle: saline with Tween-80
[7] = endpoint: mean survival time, dose: 100.0 mg/kg/injection, schedule: Q01DX001 (ip), vehicle: saline with Tween-80
[8] = endpoint: mean survival time, dose: 200.0 mg/kg/injection, schedule: Q01DX001 (ip), vehicle: saline with Tween-80
[9] = endpoint: mean survival time, dose: 100.0 mg/kg/injection, schedule: Q04DX002 (ip), vehicle: saline with Tween-80
[10] = endpoint: mean survival time, dose: 200.0 mg/kg/injection, schedule: Q01DX009 (ip), vehicle: saline with Tween-80
[11] = endpoint: mean survival time, dose: 200.0 mg/kg/injection, schedule: Q04DX002 (ip), vehicle: saline with Tween-80
[12] = endpoint: mean survival time, dose: 400.0 mg/kg/injection, schedule: Q01DX009 (ip), vehicle: saline with Tween-80
[13] = endpoint: mean survival time, dose: 400.0 mg/kg/injection, schedule: Q04DX002 (ip), vehicle: saline with Tween-80

Measured: T/C

Nc1c(Br)cc2c(c1Br)Cc1cc(Cl)ccc1-2
inactive: [1] 107 % of control | endpoint: mean survival time, dose: 25.0 mg/kg/injection, schedule: Q04DX003 (ip), vehicle: saline with Tween-80 111 % of control | [2] 103 % of control | endpoint: mean survival time, dose: 50.0 mg/kg/injection, schedule: Q04DX003 (ip), vehicle: saline with Tween-80 103 % of control | [3] 102 % of control | [4] 105 % of control | [5] 100 % of control | [6] 86 % of control

O=C(CC(=O)C(F)(F)C(F)(F)C(F)(F)F)C(F)(F)F.O=C(CC(=O)C(F)(F)C(F)(F)C(F)(F)F)C(F)(F)F.O=C(CC(=O)C(F)(F)C(F)(F)C(F)(F)F)C(F)(F)F.O=C(CC(=O)C(F)(F)C(F)(F)C(F)(F)F)C(F)(F)F.[Yb]
inactive: endpoint: median survival time, dose: 50.0 mg/kg/injection, schedule: Q04DX002 (ip), vehicle: saline with Tween-80 100 % of control | endpoint: median survival time, dose: 100.0 mg/kg/injection, schedule: Q04DX002 (ip), vehicle: saline with Tween-80 100 % of control | endpoint: median survival time, dose: 200.0 mg/kg/injection, schedule: Q04DX002 (ip), vehicle: saline with Tween-80 100 % of control | endpoint: median survival time, dose: 400.0 mg/kg/injection, schedule: Q04DX002 (ip), vehicle: saline with Tween-80 100 % of control

O=C1c2cccc(NCCCNCCO)c2C(=O)c2cccc(NCCCNCCO)c21
inactive: endpoint: median survival time, dose: 6.25 mg/kg/injection, schedule: Q01DX009 (ip), vehicle: acid diluted with saline 105 % of control | endpoint: median survival time, dose: 12.5 mg/kg/injection, schedule: Q01DX009 (ip), vehicle: acid diluted with saline 117 % of control | endpoint: median survival time, dose: 25.0 mg/kg/injection, schedule: Q01DX009 (ip), vehicle: acid diluted with saline 116 % of control | endpoint: median survival time, dose: 50.0 mg/kg/injection, schedule: Q01DX009 (ip), vehicle: acid diluted with saline 88 % of control

CC1(C)CC(C)(Br)C(Br)C(=O)C1C(O)(C(F)(F)F)C(F)(F)F (stereo not drawn)
inactive: [4] 100 % of control | [5] 97 % of control | [6] 100 % of control

Cc1ccc(S(=O)(=O)OCC(O)C(O)C(O)C(C)O)cc1 (stereo not drawn)
inactive: [7] 98 % of control | [8] 98 % of control | endpoint: mean survival time, dose: 400.0 mg/kg/injection, schedule: Q01DX001 (ip), vehicle: saline with Tween-80 102 % of control

CC(C)COCCCN
inactive: endpoint: mean survival time, dose: 100.0 mg/kg/injection, schedule: Q04DX003 (ip), vehicle: saline 98 % of control

N=C(N)c1ccc(N=NNc2ccc(C(=N)N)cc2)cc1
inactive: endpoint: median survival time, dose: 12.5 mg/kg/injection, schedule: Q01DX009 (ip), vehicle: saline with Tween-80 117 % of control | endpoint: median survival time, dose: 25.0 mg/kg/injection, schedule: Q01DX009 (ip), vehicle: saline with Tween-80 102 % of control

Cc1cc(C)c(S(=O)(=O)F)cc1C(=O)O
inactive: [7] 101 % of control | [3] 96 % of control and 100 % of control | [9] 92 % of control and 104 % of control | [4] 107 % of control | [8] 95 % of control | [10] 93 % of control and 94 % of control | [11] 96 % of control and 104 % of control | [5] 102 % of control | [12] 96 % of control | [13] 94 % of control and 102 % of control | [6] 100 % of control

N#CC1=C(C#N)C(=O)c2ccccc2C1=O
inactive: [1] 98 % of control | [2] 97 % of control | [3] 88 % of control

O=C(Nc1cc(C(F)(F)F)ccc1Cl)c1cccc(Cl)c1
inactive: [3] 95 % of control | [4] 102 % of control | [10] 98 % of control | [5] 93 % of control | [12] 98 % of control | [6] 94 % of control

O=C(NCc1ccccc1)C(Cc1ccccc1)(Cc1ccccc1)C(=O)NCc1ccccc1
inactive: [2] 102 % of control | [3] 97 % of control | [10] 93 % of control

CC(=O)C(CCN(C)C)(c1ccccc1)c1ccccc1
inactive: endpoint: mean survival time, dose: 75.0 mg/kg/injection, schedule: Q01DX001 (ip), vehicle: saline 102 % of control | endpoint: mean survival time, dose: 150.0 mg/kg/injection, schedule: Q01DX001 (ip), vehicle: saline 91 % of control

COC(=O)c1nc(SC)n(C2OC(COC(=O)c3ccccc3)C(OC(=O)c3ccccc3)C2OC(=O)c2ccccc2)c1CC#N (stereo not drawn)
inactive: endpoint: median survival time, dose: 9.13 mg/kg/injection, schedule: Q01DX005 (ip), vehicle: saline with Tween-80 100 % of control | endpoint: median survival time, dose: 18.25 mg/kg/injection, schedule: Q01DX005 (ip), vehicle: saline with Tween-80 98 % of control | endpoint: median survival time, dose: 36.5 mg/kg/injection, schedule: Q01DX005 (ip), vehicle: saline with Tween-80 91 % of control | endpoint: median survival time, dose: 73.0 mg/kg/injection, schedule: Q01DX005 (ip), vehicle: saline with Tween-80 98 % of control | endpoint: median survival time, dose: 146.0 mg/kg/injection, schedule: Q01DX005 (ip), vehicle: saline with Tween-80 96 % of control

CC1(C)OCC2OC3(CO)NP(=O)(N(CCCl)CCCl)OC3C2O1 (stereo not drawn)
inactive: endpoint: mean survival time, dose: 62.5 mg/kg/injection, schedule: Q01DX001 (ip), vehicle: distilled water + Tween-80 102 % of control | endpoint: mean survival time, dose: 125.0 mg/kg/injection, schedule: Q01DX001 (ip), vehicle: distilled water + Tween-80 101 % of control | endpoint: mean survival time, dose: 250.0 mg/kg/injection, schedule: Q01DX001 (ip), vehicle: distilled water + Tween-80 93 % of control

CC(C)CCCCCc1ccc(OCCOc2ccc(C(=O)Nc3ccc(S(=O)(=O)F)cc3[N+](=O)[O-])cc2)cc1
inactive: endpoint: mean survival time, dose: 100.0 mg/kg/injection, schedule: Q01DX009 (ip), vehicle: Klucel (hydroxypropylcellulose) (HPC) 91 % of control | endpoint: mean survival time, dose: 200.0 mg/kg/injection, schedule: Q01DX009 (ip), vehicle: Klucel (hydroxypropylcellulose) (HPC) 92 % of control | endpoint: mean survival time, dose: 400.0 mg/kg/injection, schedule: Q01DX009 (ip), vehicle: Klucel (hydroxypropylcellulose) (HPC) 87 % of control

O=C(OC12CCCC1CC2)c1ccc([N+](=O)[O-])cc1 (stereo not drawn)
inactive: [3] 97 % of control | [10] 95 % of control

N/C(Cc1ccc(N)cc1)=N\O
inactive: [4] 110 % of control

CCOC(=O)C(=CNc1ccc(OC)cc1[N+](=O)[O-])C(=O)OCC
inactive: endpoint: mean survival time, dose: 100.0 mg/kg/injection, schedule: Q01DX005 (ip), vehicle: saline with Tween-80 103 % of control | [3] 93 % of control | endpoint: mean survival time, dose: 200.0 mg/kg/injection, schedule: Q01DX005 (ip), vehicle: saline with Tween-80 97 % of control | [10] 89 % of control | endpoint: mean survival time, dose: 400.0 mg/kg/injection, schedule: Q01DX005 (ip), vehicle: saline with Tween-80 91 % of control | [12] 89 % of control

O=c1oc2ccccc2c2ccccc12
inactive: [9] 108 % of control | [11] 101 % of control | [13] 101 % of control
